Columns and labels:
B16 melanoma cells = test: Life-prolonging effect in melanoma-inoculated mice; type: in vivo, B6 mice; settings: 10 animals in group
Description: 2×10^5 B16 melanoma cells were transplanted to B6 mice in the same manner as Example 3. On day 5 after transplantation, the right auricle of each B6 mouse was treated with each test substance (TRP-2 (10 μg for one side of each auricle), Compound A-(1) (20 μL of 100 μM solution for one side of each auricle) by the same method as Example 3. Ten days later, the left auricle was treated in the same manner, and the mice in each experimental group were examined for mortality. Three experimental groups were established: (1) a group undergoing TS alone, (2) a group undergoing TS followed by application of Compound A-(1), and (3) a group undergoing TS followed by application of TRP-2 and Compound A-(1) (10 animals in each group).

HSVgpB-specific CTLs = test: Activation of cytotoxic T cells in cervical lymph nodes after tape stripping (HSVgpB pentamer flow cytometry); type: in vivo, C57BL/6(B6) mice; settings: Example 1(3), TS followed by application of HSVgpB and the EP4 agonist
Description: The corneal layers of the auricles of C57BL/6(B6) mice were destroyed by repeating a stripping procedure using an adhesive tape in 10 cycles, and an antigen peptide or EP4 agonist was applied as a test substance. The antigen peptide used was a melanoma-specific antigen peptide (Accord K.K. Peptide Business Department; hereinafter abbreviated TRP-2) in solution in 70% ethanol; 10 μg was applied to one side of each auricle. The EP4 agonist used was 11α,15α,-dihydroxy-9-oxo-16-(3-methoxymethylphenyl)-17,18,19,20-tetranol-3,7-dithiaprost-13E-enoic acid (hereinafter abbreviated Compound A-(1)) in solution in a mixed solvent of acetone:olive oil=10:1; 20 μL of 100 μM solution was applied to one side of each auricle. One week after application of the test substance, the cervical lymph nodes were removed. The frequency of TRP-2-specific CTLs was determined relative to the total number of mononucleocytes in the cervical lymph nodes as 100 by a flowcytometric analysis (FACScaliber; Becton, Dickinson and Company.) with a tetramer (Medical & Biological Laboratories Co., Ltd.). Four experimental groups were established: (1) a group undergoing tape stripping (hereinafter abbreviated TS) alone, (2) a group undergoing TS followed by application of TRP-2, (3) a group undergoing TS followed by application of Compound A-(1), and (4) a group undergoing TS followed by application of TRP-2 and Compound A-(1).
The same procedures as Example 1(1) were followed except that the antigen peptide used was the herpes simplex virus-specific antigen HSV glycoprotein B (hereinafter abbreviated HSVgpB), and that a flowcytometric analysis with a pentamer (ProImmune Company) was performed, and the action of each compound to activate cytotoxic T cells was evaluated. Five experimental groups were established: (1) a group undergoing TS alone, (2) a group undergoing TS followed by application of HSVgpB, (3) a group undergoing TS followed by application of HSVgpB and Compound A-(1), (4) a group undergoing TS followed by application of HSVgpB and Compound L-(1), and (5) a group undergoing TS followed by application of HSVgpB and Compound M-(1).
Note that the herpes simplex virus-specific antigen peptide HSVgpB was synthesized on the basis of the partial sequence shown by SEQ ID NO. 2 (Virology, Vol. 195, pp. 62-70, (1993)) (ProImmune Company).

Structure (SMILES): COCc1cccc(C[C@H](O)/C=C/[C@H]2[C@H](O)CC(=O)[C@@H]2SCCCSCC(=O)O)c1 [Compound A-(1), 11α,15α,-dihydroxy-9-oxo-16-(3-methoxymethylphenyl)-17,18,19,20-tetranol-3,7-dithiaprost-13E-enoic acid]
- number of surviving individuals (B16 melanoma cells; day 16 after B16 melanoma cells inoculation, TS followed by Compound A-(1)): 10 animals
- number of surviving individuals (B16 melanoma cells; day 16 after B16 melanoma cells inoculation, TS followed by TRP-2 and Compound A-(1)): 10 animals
- number of surviving individuals (B16 melanoma cells; day 21 after B16 melanoma cells inoculation, TS followed by Compound A-(1)): 10 animals
- number of surviving individuals (B16 melanoma cells; day 21 after B16 melanoma cells inoculation, TS followed by TRP-2 and Compound A-(1)): 10 animals
- number of surviving individuals (B16 melanoma cells; day 24 after B16 melanoma cells inoculation, TS followed by Compound A-(1)): 10 animals
- number of surviving individuals (B16 melanoma cells; day 24 after B16 melanoma cells inoculation, TS followed by TRP-2 and Compound A-(1)): 10 animals
- number of surviving individuals (B16 melanoma cells; day 27 after B16 melanoma cells inoculation, TS followed by Compound A-(1)): 7 animals
- number of surviving individuals (B16 melanoma cells; day 27 after B16 melanoma cells inoculation, TS followed by TRP-2 and Compound A-(1)): 10 animals
- number of surviving individuals (B16 melanoma cells; day 29 after B16 melanoma cells inoculation, TS followed by Compound A-(1)): 7 animals
- number of surviving individuals (B16 melanoma cells; day 29 after B16 melanoma cells inoculation, TS followed by TRP-2 and Compound A-(1)): 10 animals
- number of surviving individuals (B16 melanoma cells; day 31 after B16 melanoma cells inoculation, TS followed by Compound A-(1)): 7 animals
- number of surviving individuals (B16 melanoma cells; day 31 after B16 melanoma cells inoculation, TS followed by TRP-2 and Compound A-(1)): 10 animals
- number of surviving individuals (B16 melanoma cells; day 33 after B16 melanoma cells inoculation, TS followed by Compound A-(1)): 7 animals
- number of surviving individuals (B16 melanoma cells; day 33 after B16 melanoma cells inoculation, TS followed by TRP-2 and Compound A-(1)): 10 animals
- number of surviving individuals (B16 melanoma cells; day 35 after B16 melanoma cells inoculation, TS followed by Compound A-(1)): 2 animals
- number of surviving individuals (B16 melanoma cells; day 35 after B16 melanoma cells inoculation, TS followed by TRP-2 and Compound A-(1)): 10 animals
- number of surviving individuals (B16 melanoma cells; day 37 after B16 melanoma cells inoculation, TS followed by Compound A-(1)): 2 animals
- number of surviving individuals (B16 melanoma cells; day 37 after B16 melanoma cells inoculation, TS followed by TRP-2 and Compound A-(1)): 10 animals
- number of surviving individuals (B16 melanoma cells; day 38 after B16 melanoma cells inoculation, TS followed by Compound A-(1)): 2 animals
- number of surviving individuals (B16 melanoma cells; day 38 after B16 melanoma cells inoculation, TS followed by TRP-2 and Compound A-(1)): 10 animals
- number of surviving individuals (B16 melanoma cells; day 40 after B16 melanoma cells inoculation, TS followed by Compound A-(1)): 0 animals
- number of surviving individuals (B16 melanoma cells; day 40 after B16 melanoma cells inoculation, TS followed by TRP-2 and Compound A-(1)): 8 animals
- number of surviving individuals (B16 melanoma cells; day 42 after B16 melanoma cells inoculation, TS followed by Compound A-(1)): 0 animals
- number of surviving individuals (B16 melanoma cells; day 42 after B16 melanoma cells inoculation, TS followed by TRP-2 and Compound A-(1)): 8 animals
- number of surviving individuals (B16 melanoma cells; day 44 after B16 melanoma cells inoculation, TS followed by Compound A-(1)): 0 animals
- number of surviving individuals (B16 melanoma cells; day 44 after B16 melanoma cells inoculation, TS followed by TRP-2 and Compound A-(1)): 5 animals
- number of surviving individuals (B16 melanoma cells; day 46 after B16 melanoma cells inoculation, TS followed by Compound A-(1)): 0 animals
- number of surviving individuals (B16 melanoma cells; day 46 after B16 melanoma cells inoculation, TS followed by TRP-2 and Compound A-(1)): 4 animals
- number of surviving individuals (B16 melanoma cells; day 48 after B16 melanoma cells inoculation, TS followed by Compound A-(1)): 0 animals
- number of surviving individuals (B16 melanoma cells; day 48 after B16 melanoma cells inoculation, TS followed by TRP-2 and Compound A-(1)): 2 animals
- number of surviving individuals (B16 melanoma cells; day 50 after B16 melanoma cells inoculation, TS followed by Compound A-(1)): 0 animals
- number of surviving individuals (B16 melanoma cells; day 50 after B16 melanoma cells inoculation, TS followed by TRP-2 and Compound A-(1)): 2 animals
- number of surviving individuals (B16 melanoma cells; day 52 after B16 melanoma cells inoculation, TS followed by Compound A-(1)): 0 animals
- number of surviving individuals (B16 melanoma cells; day 52 after B16 melanoma cells inoculation, TS followed by TRP-2 and Compound A-(1)): 2 animals
- number of surviving individuals (B16 melanoma cells; day 55 after B16 melanoma cells inoculation, TS followed by Compound A-(1)): 0 animals
- number of surviving individuals (B16 melanoma cells; day 55 after B16 melanoma cells inoculation, TS followed by TRP-2 and Compound A-(1)): 2 animals
- number of surviving individuals (B16 melanoma cells; day 57 after B16 melanoma cells inoculation, TS followed by Compound A-(1)): 0 animals
- number of surviving individuals (B16 melanoma cells; day 57 after B16 melanoma cells inoculation, TS followed by TRP-2 and Compound A-(1)): 1 animals
- Ratio of HSVgpB-specific CTLs (HSVgpB-specific CTLs): 0.41
